Assay results as given in article PMC7154662, “Structural Insight into IAPP‐Derived Amyloid Inhibitors and Their Mechanism of Action” (Angewandte Chemie (International Ed. in English), 2020).
“Also recorded” adds a separate entry of the source. Values belong to the molecule of their own block, whether it stands above or below them.

Assays:
Aβ = settings: cited from earlier work
Description: (§1) Single‐site binding events are the classical paradigm for a drug–enzyme complex. Because of the low affinity and the lack of deep binding pockets, this class of inhibitors is not very effective for amyloids (Figure 7, top). Nevertheless, it has been shown that multi‐ligand interactions of tramisprosate with monomeric Aβ42 can prevent amyloid oligo ...

Aβ40 [1] = test: TEM of ISM-induced Aβ40 aggregates; assay type: biochemical; settings: equimolar amount of K3-L3-K3-GI
Experimental: Figure 6 Structural characterization of K3‐L3‐K3‐GI‐induced Aβ40 aggregates. A, B) TEM images of Aβ40 in the absence (A) and presence (B) of an equimolar amount of K3‐L3‐K3‐GI. Scale bar: 200 nm. C) 2D ^13C,^15N MAS solid‐state NMR correlation spectra obtained for K3‐L3‐K3‐GI‐induced Aβ40 aggregates (red). To prepare the sample, a 20 μM solution of monomeric Aβ40 was incubated with a 1.23‐fold molar excess of K3‐L3‐K3‐GI. For reference, the correlation spectrum obtained for Aβ40 fibrils is shown in black. To prepare the Aβ40 fibril sample, monomeric Aβ40 was grown using 5 % seeds, following the protocol described by Lopez and co‐workers.17 (D) Cα–Cβ chemical shift differences for K3‐L3‐K3‐GI‐induced Aβ40 aggregates (top). TALOS+^[19]‐predicted secondary structure propensity (bottom). […]
temperature within 2-5 min following solution preparation. The determined app. […]
(§2) Effects of peptides on amyloidogenesis of Aβ40 were determined using a previously established ThT binding assay as described. […] ThT binding was determined immediately by measuring fluorescence emission at 486 nm following excitation at 450 nm using a 2030 Multilabel Reader VictorX3 (PerkinElmer Life Sciences). […]
(§3) PA 19440, USA; Formvar/Carbon 300 mesh copper coated). Samples were measured immediately employing an EM 10 CR (Zeiss, Germany). […]

Aβ40 [2] = test: Effects of ISM on Aβ40 amyloid self-assembly (ThT binding assay); assay type: biochemical; settings: Aβ40/ISM 1/1, 50 mM sodium phosphate buffer, pH 7.4, 100 mM NaCl, 1% HFIP, room temperature, 3 assays
Experimental: (§4) temperature within 2-5 min following solution preparation. The determined app. Kd is means (±SD) from three binding curves.
Cross-linking studies were performed as previously described. Briefly, R3-GI was dissolved at 500 μM in aqueous 10 mM sodium phosphate buffer, pH 7.4, and incubated for the indicated time points at room temperature, cross-linked with aqueous glutaraldehyde (25%) (Sigma-Aldrich), precipitated with aqueous trichloroacetic acid (TCA) (10%) and pellets were dissolved in NuPAGE sample buffer and subjected to NuPAGE electrophoresis in 4-12% Bis-Tris gels with MES running buffer. Equal amounts of peptide were loaded in all lanes. Coomassie blue staining was performed following standard protocols.
Dynamic light scattering experiments […]
as §2
(A) Amyloid self-assembly of Aβ40 alone and its mixtures (1:1) with K3-L3-K3-GI or L3-GI (control) determined using the ThT binding assay (means (±SEM), 3 assays). […]
7 days aged solutions from (A) were added to PC12 cells; cell damage was assessed by the MTT reduction assay (means (±SEM), 3 assays (n=3 each)). […]

Aβ40 [3] = test: Co-localization of Fluos-labeled ISMs with Fluor-647-Aβ40 (DIC and fluorescence microscopy); assay type: binding; settings: incubated at room temperature for 20 min
Experimental: (§5) Figure 5 ISM–substrate interactions. A) ^15N‐filtered 1D‐^1H spectra of a 20 μM sample of ^15N‐labeled Aβ40 in the absence (black) and presence of the ISM inhibitor K3‐L3‐K3‐GI (top), and the non‐inhibitor G3‐GI (bottom). […] At this molar excess, the intensities of Aβ40 are reduced only to ca. 28 % when G3‐GI is titrated to Aβ40. […] At a molar ratio of 1:10 for Aβ/inhibitor, the spectrum is dominated by the resonances of the inhibitor. […] B) 2D ^1H‐^15N HSQCs of Aβ40 incubated with K3‐L3‐K3‐GI (red) at a molar ratio of 1:1. The Aβ40 reference spectrum is represented in black. […] C) Comparison of the DIC and fluorescence microscopy images of R3‐GI/Aβ40, K3‐L3‐K3‐GI/Aβ40, and G3‐GI/Aβ40. […] Scale: 10 μm.
(§6) Peptide synthesis and sample preparation for NMR
(§7) The other peptide samples were
(§8) Sample preparation for DLS, TEM and DIC
(containing 1% v/v HFIP) without filtration. The Fluor-647-Aβ40 was ordered from AnaSpec,
for 20 min before capturing images.
microscope, as described elsewhere. An oil immersion objective (Apo-TIRF 100x Oil/NA
1.49, Nikon) was used for all measurements.
Picoquant) was used for excitation. Fluorescence emission was detected using an avalanche
(§9) measurements were carried out at 22 °C.
(measured before the back aperture of the objective).

Aβ40 [4] = test: Solubility of 15N-labeled Aβ40 in presence of ISM (NMR titration); assay type: binding; settings: for Aβ40 signal at tenfold excess of ISM, in words: molar ratio Aβ/ISM 1:10; for Effect on Aβ40 solubility upon titration, in words: titration with / incubation of monomeric Aβ40
Experimental: as §5

[5] = Solubility of ISMs (qualitative); assay type: physicochemical
[6] = Saturation transfer difference (STD) NMR; assay type: physicochemical; settings: R3-GI 1.25 mM, control peptide 60 μM, 10 mM sodium phosphate buffer, pH 7.4 (1% v/v HFIP, 10% v/v D2O)
[7] = Solution-state NMR (NOESY, chemical shifts) structural characterization; assay type: physicochemical
Experimental: as §6, §7, §8
(§10) (containing 1% v/v HFIP) without filtration. The Fluor-647-Aβ40 was ordered from AnaSpec, […]
(§11) for 20 min before capturing images. […]
(§12) microscope, as described elsewhere. An oil immersion objective (Apo-TIRF 100x Oil/NA 1.49, Nikon) was used for all measurements.
(§13) Picoquant) was used for excitation. Fluorescence emission was detected using an avalanche […]
as §9
(§14) (measured before the back aperture of the objective). […]
quantify the signal-to-noise ratio. For the R3-GI peptide, the signal to noise ratio of the isolated Thr-CH3 peak amounts to […]. For the reference peptide, the signal to noise of the single Thr-CH3 peak corresponds to 216.82. The ratio of concentrations amounts to a factor of 20.83. Otherwise, 1D-1H spectra were recorded under identical conditions. […]
images in which we determined the partitioning coefficient of the R3-GI solution (Fig. S3). […]
correlation time which in turn would result in higher NOESY cross peak intensities. A) H- H NOESY spectrum recorded for a 500 μM solution of R3-GI, using a salt concentration of 2.5 mM (black) and 50 mM NaCl (red), respectively. […]
recorded for a 500 μM solution of R3-GI, setting the pH to 5.98 (blue), 6.87 (green), 7.06 (red) and 7.23 (black). […]

Aβ40/42 = settings: ref 1b; cited from earlier work
Description: The design of the ISMs was based on the finding that amyloids are generally composed of a β‐sheet‐turn‐β‐sheet structural motif and that IAPP uses the same two binding regions for both its amyloid self‐ and its cross‐amyloid hetero‐assem ... || Our studies focused on the two ISMs R3‐GI and K3‐L3‐K3‐GI for the following reasons (Figure 1 A and Table S1 in the Supporting Information): 1) R3‐GI was used in solution‐state NMR studies as the intrinsically low solubility of all ISMs with hydrophobic linkers makes them unsuitable for solution‐state NMR spectroscopy. […] Multivalent interactions between an inhibitor molecule and an amyloid fibril have been exploited by Wall and co‐workers,27 who designed an α‐helical peptide with a lysine basic side chain to interact with negatively charged residues exposed on the surface of amyloid structures. These inhibitors are used as imaging reagents and stabilize a fibrillar fold. In contrast, ISMs prevent amyloid form ...

[8] = Morphology by TEM, DIC and fluorescence microscopy; assay type: physicochemical; settings: DIC experiments; 10 mM sodium phosphate buffer, pH 7.4 (1% v/v HFIP)
Experimental: Figure 1 R3‐GI self‐assembly. […] On the right, the binding curve is shown. The estimated app. […] Data are means (±SEM) from three binding curves. […] Scale bar: 10 μm.
as §6, §7, §8, §10, §11, §12, §13, §9, §14, §4
Cross-linking studies were performed as previously described. […]
as §2, §3

Aβ42 = settings: multi-ligand interactions with monomeric Aβ42; cited from earlier work
Description: as §1

[9] = 20 μM 15N-labeled Aβ40, molar ratio 1:1

Molecule: CSc1ccc(/C=C2/C(C)=C(CC(=O)O)c3cc(F)ccc32)cc1 [sulindac sulfide]
Effect on Aβ peptide aggregation (Aβ): accelerates Aβ peptide aggregation

Molecule: ATQRLANFLVH-GGG-NF(N-Me)GA(N-Me)ILS [G3-GI]
Long-range NOE contacts (loop formation) [7]: only weak long‐range NOEs if any
Aβ amyloid self-assembly inhibition, in words (Aβ40/42): non‐inhibitor
Co-localization with Aβ40 (Aβ40 [3]): no co‐localization with Aβ40
Macroscopic particles in solution (DIC) [8]: macroscopic particles are observed
Aβ40 solubility at 1:1, in words (Aβ40 [4]; [9]): almost unaffected
Aβ40 resonance intensity remaining at tenfold excess of ISM (Aβ40 [4]; 20 μM 15N-labeled Aβ40, molar ratio Aβ/ISM 1:10): ca. 28%
Aβ40 signal at tenfold excess of ISM, in words (Aβ40 [4]): high intensities were observed
Effect on Aβ40 solubility upon titration, in words (Aβ40 [4]): no effects on Aβ40 solubility were observed

Molecule: NCCCS(=O)(=O)O [tramisprosate]
Effect on Aβ42 amyloid oligomer formation (Aβ42): can prevent amyloid oligomer formation

The next lines start with results.

Function of K3-L3-K3-GI as analogue of L3-GI (Figure S1) (Aβ40 [2]): functional analogue
Solubility, in words [5]: reasonably soluble
Molecule: KKK-ATQRLANFLVH-LLL-NF(N-Me)GA(N-Me)ILS-KKK [K3-L3-K3-GI]
Morphology of ISM-induced Aβ40 aggregates (Aβ40 [1]): mainly amorphous aggregates
Co-localization with Aβ40 (Aβ40 [3]): co‐localize with Aβ40
Aβ40 remaining in solution (Aβ40 [4]; [9]): 9%
Aβ40 chemical shift changes upon ISM addition (Aβ40 [4]; 2D 1H-15N HSQC, molar ratio 1:1): not affected; also recorded: No Aβ40 chemical shift changes were observed
Aβ40 signal at tenfold excess of ISM, in words (Aβ40 [4]): almost empty; also recorded: disappear quantitatively
Effect on Aβ40 solubility upon titration, in words (Aβ40 [4]): precipitated quickly out of solution

STD NMR signals [6]: monomeric
STD NMR signals ([6]; listed as monomeric peptide used as a control): no STD signals
Molecule: GVAEPEQDCAVTSGE
